The text below walks through data of patent US7625889B2, “Substituted bis aryl and heteroaryl compounds as selective 5HT2A antagonists” (Aventis Pharmaceuticals Inc., priority 2005, dated 2009).

Counter-ions that a name gives are not always drawn.

T1 sequence (P28223 whole entry): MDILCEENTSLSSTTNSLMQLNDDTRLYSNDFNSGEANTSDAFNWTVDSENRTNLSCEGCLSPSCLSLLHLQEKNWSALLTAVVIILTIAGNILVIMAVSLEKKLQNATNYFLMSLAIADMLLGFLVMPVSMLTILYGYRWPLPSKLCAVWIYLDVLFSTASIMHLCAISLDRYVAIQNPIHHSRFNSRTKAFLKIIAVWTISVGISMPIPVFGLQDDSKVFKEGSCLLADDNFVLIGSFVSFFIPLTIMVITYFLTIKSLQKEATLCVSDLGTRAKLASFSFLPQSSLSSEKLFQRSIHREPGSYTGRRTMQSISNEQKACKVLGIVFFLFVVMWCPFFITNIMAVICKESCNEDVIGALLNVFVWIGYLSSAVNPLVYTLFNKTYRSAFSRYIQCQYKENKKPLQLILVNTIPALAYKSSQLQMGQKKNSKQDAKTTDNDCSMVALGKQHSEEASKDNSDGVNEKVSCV

The experiment addresses T1, human 5HT2A receptor (Homo sapiens, UniProt P28223).
T1 construct: expressed in transfected cells
The experiment in a line: Receptor Binding Assay, 5HT2A ([3H]N-methyl spiperone). The following applies: BHK cells expressing human 5HT2A receptor, 2.5 nM [3H]N-methyl spiperone, 37° C. The protocol:
Cell Culture: BHK cells stably expressing the human 5HT2A receptor were maintained in Dulbecco's Modified Eagle's Medium supplemented with […] Geneticin, 1% Sodium Pyruvate, 1% Pen-Strep and 10% Fetal Calf Serum, and treated with 5 mM sodium butyrate for 24 h to increase receptor expression before harvesting. Cells were harvested by mechanical scraping, washed with Phosphate Buffered Saline, and stored at −80° C. in 10% DMSO in 1 mg/mil aliquots until used. Protein determination was made according to Lowry.
Receptor Binding Assays: The 5HT2A and D2L assays were conducted at 37° C. in a Tris buffer containing salts (50 mM Tris Buffer, pH 7.7; 120 mM NaCl; 5 mM KCl; 2 mM CaCl2; 1 mM MgCl2). Cell membranes (previously prepared and frozen) were rapidly thawed. Membranes were diluted to an appropriate concentration (to produce 100 μg protein/assay point for 5HT2A, and 58 μg protein/assay point for D2L) in Tris buffer and homogenized. Assays were conducted on 96-well plates, using 2.5 and 1 nM [^3H]N-methyl spiperone as radioligand for 5HT2A and D2L assays, respectively. Plates were incubated at 37° C. in a shaking water bath for 30 and 60 min, for 5HT2A and D2L, respectively. Nonspecific binding was defined using 100 μM methylsergide and eticlopride, for 5HT2A and D2L, respectively.
Assays were terminated by rapid filtration through Millipore MAFB or MAFC (5HT2C) filter plates (presoaked in 50 mM Tris HCl, pH 7.7, with 0.1% Brij) using a Millipore Cell Harvester. The filter plates were then washed with ice-cold 50 mM Tris buffer, pH 7.7, and allowed to dry overnight. 50 μl of Microscint scintillation cocktail were added and the plates were counted in a Packard Topcount scintillation counter.
IC50 and Ki calculations were performed using nonlinear regression one-site competition analysis (GraphPad, Prism), with top and bottom limits held constant at 0% and 100% inhibition, respectively. The percent inhibition at each drug concentration was the average of duplicate determinations. Except where indicated, each determination was performed 2 to 5 times.
The term Ki denotes a measure of affinity in units of concentration, obtained from inhibition or displacement. The compound `CN(C)CCN(Cc1cncc(-c2ccc3[nH]ccc3c2)c1)C(=O)c1ccc(F)cc1` [Example 74, N-(2-Dimethylamino-ethyl)-4-fluoro-N-[5-(1H-indol-5-yl)-pyridin-3-ylmethyl]-benzamide trifluoroacetate] returned a Ki of 1.05 nM. Next, `O=C(c1ccc(F)cc1)N(CCN1CCCC1)Cc1ccc(-c2ccc3[nH]ccc3c2)s1` [Example 75]: 2.14 nM. Under `CN1CCC(N(Cc2cc(-c3ccc4[nH]ccc4c3)co2)C(=O)c2ccc(F)cc2)CC1` [Example 76] stands 4.74 nM; under `O=C(c1ccc(F)cc1)N(Cc1cc(-c2ccc3[nH]ccc3c2)ccc1F)[C@H]1CN2CCC1CC2` [Example 77, N-(1-Aza-bicyclo[2.2.2]oct-3R-yl)-4-fluoro-N-[2-fluoro-5-(1H-indol-6-yl)-benzyl]-benzamide], 0.49 nM. Next, `O=C(c1ccc(F)cc1)N(Cc1cc(-c2ccc3[nH]c(=O)oc3c2)ccc1F)C1CN2CCC1CC2` (stereo not shown) [Example 78]: 0.76 nM.

`O=C(c1ccc(F)cc1)N(Cc1cc(-c2ccc3[nH]c(=O)oc3c2)ccc1F)[C@H]1CN2CCC1CC2` [Example 79] had a Ki of 0.61 nM. Under `Fc1ccc(CN(Cc2cc(-c3ccc4[nH]nnc4c3)ccc2F)C[C@H]2CCCN2)cc1` [Example 80, [5-(1H-Benzothiazol-5-yl)-2-fluoro-benzyl]-(4-fluoro-benzyl)-pyrrolidin-2R-ylmethyl-amine trihydrochloride] stands 14.9 nM; under `Fc1ccc(CN(Cc2cc(-c3ccc4[nH]ncc4c3)ccc2F)C[C@@H]2CCCN2)cc1` [Example 81], 2 nM.

In the case of `Fc1ccc(CN(Cc2cc(-c3ccc4[nH]ncc4c3)ccc2F)C2CCNCC2)cc1` [Example 82], affinity was put at a Ki of 0.51 nM.

As to `CNCCN(Cc1ccc(F)cc1)Cc1cc(-c2ccc3[nH]ncc3c2)ccc1F` [Example 83, N-(4-Fluoro-benzyl)-N-[2-fluoro-5-(1H-indazol-5-yl)-benzyl]-N′-methyl-ethane-1,2-diamine], the Ki stood at 0.82 nM. Next, `Fc1ccc(-c2ccc3[nH]nnc3c2)cc1CN(Cc1cccs1)C1CCNCC1` [Example 84, [5-(1H-Benzotriazol-5-yl)-2-fluoro-benzyl]-piperidin-4-yl-thiophen-2-ylmethyl-amine]: 0.37 nM; `Fc1ccc(CN(Cc2cc(-c3ccc4[nH]nnc4c3)ccc2F)C2CCNCC2)cc1` [Example 85, [5-(1H-Benzotriazol-5-yl)-2-fluoro-benzyl]-(4-fluoro-benzyl)-piperidin-4-yl-amine]: 0.42 nM. Under `CNCCN(Cc1ccc(F)cc1)Cc1cc(-c2ccc3[nH]nnc3c2)ccc1F` [Example 86, N-[5-(1H-Benzotriazol-5-yl)-2-fluoro-benzyl]-N-(4-fluoro-benzyl)-N′-methyl-ethane-1,2-diamine] stands 1.68 nM; under `CCN1CCC[C@H]1CN(Cc1ccc(F)cc1)Cc1cc(-c2ccc3[nH]nnc3c2)ccc1F` [Example 87, [5-(1H-Benzotriazol-5-yl)-2-fluoro-benzyl]-(1-ethyl-pyrrolidin-2S-ylmethyl)-(4-fluoro-benzyl)-amine hydrochloride], 14.2 nM.

In turn, `CN1CCC(N(Cc2ccc(F)cc2)Cc2cc(-c3ccc4[nH]nnc4c3)ccc2F)CC1` [Example 88, [5-(1H-Benzotriazol-5-yl)-2-fluoro-benzyl]-(4-fluoro-benzyl)-(1-methyl-piperidin-4-yl)-amine hydrochloride] showed a Ki of 1.16 nM. Under `CN1CCC(N(Cc2ccc(F)cc2)Cc2cc(-c3ccc4[nH]c(=O)oc4c3)ccc2F)CC1` [Example 89, 6-(4-Fluoro-3-{[(4-fluoro-benzyl)-(1-methyl-piperidin-4-yl)-amino]-methyl}-phenyl)-3H-benzooxazol-2-one] stands 1 nM; under `CN1CCC(N(Cc2ccc(F)cc2)Cc2cc(-c3ccc4[nH]ncc4c3)ccc2F)CC1` [Example 90, (4-Fluoro-benzyl)-[2-fluoro-5-(1H-indazol-5-yl)-benzyl]-(1-methyl-piperidin-4-yl)-amine], 0.42 nM; under `CN1CCN(Cc2cc(-c3ccc4[nH]ccc4c3)ccc2F)C(c2ccco2)C1` (stereo not shown) [Example 93, 5-[4-Fluoro-3-(2-furan-2-yl-4-methyl-piperazin-1-ylmethyl)-phenyl]-1H-indole], 0.6 nM.

Compound `CN1CCN(Cc2cc(-c3ccc4[nH]ncc4c3)ccc2F)[C@@H](c2ccc(F)cc2)C1` [Example 96, 5-{4-Fluoro-3-[2S-(4-fluoro-phenyl)-4-methyl-piperazin-1-ylmethyl]-phenyl}-1H-indazole] came in with a Ki of 0.89 nM. Under `CN1CCN(Cc2cc(-c3ccc4[nH]c(=O)oc4c3)ccc2F)[C@@H](c2ccc(F)cc2)C1` [Example 97, 6-{4-Fluoro-3-[2S-(4-fluoro-phenyl)-4-methyl-piperazin-1-ylmethyl]-phenyl}-3H-benzooxazol-2-one] stands 0.77 nM; under `CN1CCN(Cc2cncc(-c3ccc4[nH]ncc4c3)c2)[C@@H](c2ccc(F)cc2)C1` [Example 99, 5-{5-[2S-(4-Fluoro-phenyl)-4-methyl-piperazin-1-ylmethyl]-pyridin-3-yl}-1H-indazole], 0.29 nM. Next, `O=C(c1ccc(F)cc1)N(CCCN1CCCC1)Cc1cc(-c2ccc3[nH]ncc3c2)ccc1F` [Example 100, 4-Fluoro-N-[2-fluoro-5-(1H-indazol-5-yl)-benzyl]-N-(3-pyrrolidin-1-yl-propyl)-benzamide]: 0.6 nM; `O=C(c1ccc(F)cc1)N(CCN1CCCC1)Cc1cc(-c2ccc3[nH]nnc3c2)ccc1F` [Example 101, N-[5-(1H-Benzotriazol-5-yl)-2-fluoro-benzyl]-4-fluoro-N-(2-pyrrolidin-1-yl-ethyl)-benzamide]: 0.39 nM; `CN1CCC(N(Cc2cc(-c3ccc4[nH]ncc4c3)ccc2F)C(=O)c2ccc(F)cc2)CC1` [Example 102, 4-Fluoro-N-[2-fluoro-5-(1H-indazol-5-yl)-benzyl]-N-(1-methyl-piperidin-4-yl)-benzamide]: 0.88 nM.

As for `O=C(c1ccc(F)cc1)N(Cc1cc(-c2ccc3[nH]ncc3c2)ccc1F)[C@H]1CN2CCC1CC2` [Example 103, N-(1-Aza-bicyclo[2.2.2]oct-3R-yl)-4-fluoro-N-[2-fluoro-5-(1H-indazol-5-yl)-benzyl]-benzamide], the affinity corresponds to a Ki of 1.01 nM. Next, `CN1CCC(N(Cc2cc(-c3ccc4[nH]ccc4c3)ccc2F)C(=O)c2ccncn2)CC1` [Example 105, Pyrimidine-4-carboxylic acid [2-fluoro-5-(1H-indol-5-yl)-benzyl]-(1-methyl-piperidin-4-yl)-amide]: 3.8 nM. Under `CN1CCC(N(Cc2cc(-c3ccc4[nH]ccc4c3)ccc2F)C(=O)c2cccnn2)CC1` [Example 106, Pyridazine-3-carboxylic acid [2-fluoro-5-(1H-indol-5-yl)-benzyl]-(1-methyl-piperidin-4-yl)-amide] stands 9 nM; under `CN1CCC(N(Cc2cc(-c3ccc4[nH]ccc4c3)ccc2F)C(=O)c2ccnnc2)CC1` [Example 107, Pyridazine-4-carboxylic acid [2-fluoro-5-(1H-indol-5-yl)-benzyl]-(1-methyl-piperidin-4-yl)-amide], 85 nM; under `CN1CCC(N(Cc2cc(-c3ccc4[nH]ccc4c3)ccc2F)C(=O)c2ncccn2)CC1` [Example 108, Pyrimidine-2-carboxylic acid [2-fluoro-5-(1H-indol-5-yl)-benzyl]-(1-methyl-piperidin-4-yl)-amide], 16 nM. Next, `CC(C)Oc1ccc(C(=O)N(Cc2cc(-c3ccc4[nH]ccc4c3)ccc2F)C2CCN(C)CC2)cc1` [Example 110, N-[2-Fluoro-5-(1H-indol-5-yl)-benzyl]-4-isopropoxy-N-(1-methyl-piperidin-4-yl)-benzamide]: 85 nM; `CC(C)Oc1cccc(C(=O)N(Cc2cc(-c3ccc4[nH]ccc4c3)ccc2F)C2CCN(C)CC2)c1` [Example 111, N-[2-Fluoro-5-(1H-indol-5-yl)-benzyl]-3-isopropoxy-N-(1-methyl-piperidin-4-yl)-benzamide]: 85 nM; `CN1CCC(N(Cc2cc(-c3ccc4[nH]ccc4c3)ccc2F)C(=O)c2ccc(OC(F)(F)F)cc2)CC1` [Example 112, N-[2-Fluoro-5-(1H-indol-5-yl)-benzyl]-N-(1-methyl-piperidin-4-yl)-4-trifluoromethoxy-benzamide]: 6 nM. As to `Fc1ccc([C@H]2CNCCN2Cc2cncc(-c3ccc4[nH]ncc4c3)c2)cc1` [Example 113, 5-{5-[2S-(4-Fluoro-phenyl)-piperazin-1-ylmethyl]-pyridin-3-yl}-1H-indazole], the Ki is 0.4 nM. Under `Fc1ccc([C@H]2CNCCN2Cc2cncc(-c3ccc4[nH]ccc4c3)c2)cc1` [Example 114, 5-{5-[2S-(4-Fluoro-phenyl)-piperazin-1-ylmethyl]-pyridin-3-yl}-1H-indole acetate] stands 0.48 nM.
